The values below come from US20260083759A1, “Combinations Comprising Psychedelics for the Treatment of Schizophrenia and Other Neuropsychiatric and Neurologic Disorders” (HADASIT MEDICAL RESEARCH SERVICES AND DEVELOPMENT LTD, priority 2022, published 2026).

In assay [1] the test system is ICR mice. In words: MK-801 induced hyperactivity in the open field. The settings on record: MK-801 0.1 mg/kg i.p. immediately before open field for one hour (FIG. 3A). The class given is in vivo. The method, then: Hyperactivity induced in rodents by the NMDA receptor antagonist, MK-801, is a key rodent pharmacological model of acute psychotic features in humans.
Drugs which induce psychosis in humans enhance MK-801 induced hyperactivity in rodents while antipsychotic drugs reduce or block the effect.
In order to determine the interactive effects of PSIL and CLZ, a murine model was used where MK-801 induced hyperactivity, was assessed, which serves as a surrogate system for psychotic symptoms in schizophrenia patients.
Toward this end PSIL and CLZ alone and in combination were evaluated for their effects on MK-801 induced hyperactivity in […].
ICR mice were administered MK-801 intra-peritoneally, at a dose of 0.1 mg/kg immediately before they were placed in an open field for one hour. 30 minutes prior to administration of MK-801, mice were pretreated as follows: • 1. PSIL at a dosage of 4.4 mg/kg; • 2. CLZ at a dosage of 1.0 mg/kg; • 3. PSIL at a dosage of 4.4 mg/kg and CLZ at a dosage of 1.0 mg/kg; • 4. D-Serine (DSR) at a dosage of 3000 mg/kg; • 5. D-cycloserine (DCS) at a dosage of 320 mg/kg; • 6. […]
Activity in the open field was monitored by an overhead camera and was recorded by a Noldus Ethovision apparatus. […] Distance moved/travelled in the open field, center duration and center frequency were evaluated in the open field arena.

For assay [2], the system named is male ICR mice. In words: Head twitch response (HTR) induced by psilocybin in mice. Type of assay: in vivo. The text has this:
The head twitch response (HTR) induced by serotonergic psychedelic agents such as psilocybin (PSIL) in rodents, is a characteristic behavioral effect mediated by cortical 5-HT2A receptors that is highly correlated with the psychedelic trip induced by these agents in humans.
In order to determine whether the negative effects such as HTR could be blocked in schizophrenic patients administered psilocybin (PSIL) (which ordinarily would produce “trip-induced effects”) upon further receiving clozapine (CLZ), the effect of concurrent CLZ treatment in blocking the HTR-inducing effect of PSIL in mice was examined.
Toward this end, male ICR mice (aged 8 weeks) were implanted with mini car-magnets and were administered the following treatments intraperitoneally (i.p.): • 1. CLZ at a dosage of 1 or 2 mg/kg weight; • 2. PSIL at a dosage of 4.4 mg/kg weight; • 3. CLZ at a dosage of 1 mg/kg weight and PSIL at a dosage of 4.4 mg/kg weight; • 4. CLZ at a dosage of 2 mg/kg weight and PSIL at a dosage of 4.4 mg/kg weight; and • 5. Vehicle (Saline) controls.
CLZ was administered 30 minutes before PSIL. All injection volumes were identical. HTR was assessed in up to 6 mice simultaneously over a 20-minute period using a purpose-built magnetometer and custom software. Experiments were approved by the Authority for Biological and Biomedical Models, Hebrew University
To further extend these studies, it was of interest to determine the HTR effects induced by Psilocybin when mice were pre-administered D-Serine 3000 mg/kg, as opposed to CLZ (FIG. 2A), or D-Serine 1500 mg/kg, as opposed to CLZ (FIG. 2B).

The subject of assay [3] is GAP43. As to the kind of experiment: Western Blot of synaptic protein GAP43 in brain regions, 7 days post-administration. Type of assay: in vivo, mice. The settings on record: for GAP43 protein levels: single i.p. injection (psilocybin 4.4 mg/kg, D-Serine 3 g/kg or both), 7 days post-administration, vs saline controls (FIG. 4). The method, then: (§1) Specifically, ICR mice were administered a single intra-peritoneal injection of psilocybin at a dosage of 4.4 mg/kg, D-Serine at a dosage of 3 g/kg, a combined psilocybin dosage of 4.4 mg/kg+D-Serine dosage of 3 g/kg and compared to control animals (administered a saline vehicle). 7 days post-administration, animals were harvested, and individual brain regions were dissected, homogenized and processed for Western Blot analysis, probing for GAP43, Synaptophysin and SV2A protein expression, using commercially available reagents (Abcam).
(§2) Animals injected with PSIL or D-SER or the combination of the two were specifically probed for changes in synaptic protein expression, for proteins that are pivotally involved in neuroplasticity of the brain, focusing on 4 key regions: the brain frontal cortex, hippocampus, amygdala and striatum.
(§3) In order to comparatively assess all the effects of individual DSER or PSIL and combined DSER and PSIL administration on each brain region, a nested analysis of variance in which the level each of the synaptic proteins was compared to controls was assessed across the four brain regions frontal cortex, hippocampus, amygdala and striatum (FIG. 6).

The test system of assay [4] is Synaptophysin. As to the kind of experiment: Western Blot of synaptic protein Synaptophysin in brain regions, 7 days post-administration. The class given is in vivo, mice. The method, then: as §1, §2, §3
Assay [5] concerns SV2A. In words: Western Blot of synaptic protein SV2A in brain regions, 7 days post-administration. Type of assay: in vivo, mice. The note with it: hippocampus; single i.p. injection (D-Serine 3 g/kg or with psilocybin 4.4 mg/kg); 7 days post-administration (FIG. 5). The protocol:
as §1, §2, §3

Where [6] appears, read: across the four brain regions frontal cortex, hippocampus, amygdala and striatum, 7 days post-administration (FIG. 6).

With `C[C@]12N[C@H](Cc3ccccc31)c1ccccc12` [MK-801], the “distance travelled in the open field” value in assay [1] is “marked movement”.

Regarding `N[C@H](CO)C(=O)O` [D-Serine], the “PSIL-mediated increased HTR” value in assay [2] (D-Serine 3000 mg/kg (FIG. 2A) or 1500 mg/kg (FIG. 2B) pre-administered before Psilocybin) is listed as “significantly reduced”. Moreover, the HTR result in assay [2] (DSR alone) is recorded as “did not affect HTR”. In assay [2] (lower D-serine dose with PSIL (FIG. 2C)), the “PSIL-mediated HTR over time” value was “consistent over time”. For the same compound, the “GAP43 levels, nested analysis of variance compared to controls” value in assay [3] (setting [6]) was “increase”. The GAP43 protein levels entry in assay [3] (amygdala) and in assay [3] (frontal cortex) was “significantly increased” in each case. Moreover, the “Synaptophysin expression, nested analysis of variance compared to controls” value in assay [4] (setting [6]) is given as “increasing levels”. The synaptophysin protein expression result in assay [4] (frontal cortex, single i.p. injection D-Serine 3 g/kg, 7 days post-administration (FIG. 5)) is reported as “increased”. Moreover, in assay [5], the SV2A expression result was “increased”.

For `N[C@@H]1CONC1=O` [DCS, D-cycloserine], the HTR result in assay [2] (DCS alone) is recorded as “did not affect HTR”. Besides, the “PSIL-mediated increased HTR over time” value in assay [2] (plotted for up to 30 minutes, DCS at doses of over 320 mg/kg with PSIL (FIG. 2E)) is on record as “rapid abrogation”.
